Reference: patent US8263598B2, “Substituted sulfonamide compounds” (Gruenenthal GmbH, priority 2008, dated 2012)
Blank lines part the entries; values can stand above or below the molecule they belong to.

How the values were obtained:
[1] = target: T1, B1R receptor of rats (rB1R) (Rattus norvegicus, UniProt P97583); assay: FLIPR Ca2+ assay on rat bradykinin 1 receptor (CHO K1 rB1R cells); assay type: cell-based; conditions: test substance 10 μM; CHO K1 cells with B1R gene of rats; agonist Des-Arg9-bradykinin 100 nM; compared to maximum achievable inhibition
T1 construct: host or cells: CHO K1 cells
T1 sequence (P97583 1-337): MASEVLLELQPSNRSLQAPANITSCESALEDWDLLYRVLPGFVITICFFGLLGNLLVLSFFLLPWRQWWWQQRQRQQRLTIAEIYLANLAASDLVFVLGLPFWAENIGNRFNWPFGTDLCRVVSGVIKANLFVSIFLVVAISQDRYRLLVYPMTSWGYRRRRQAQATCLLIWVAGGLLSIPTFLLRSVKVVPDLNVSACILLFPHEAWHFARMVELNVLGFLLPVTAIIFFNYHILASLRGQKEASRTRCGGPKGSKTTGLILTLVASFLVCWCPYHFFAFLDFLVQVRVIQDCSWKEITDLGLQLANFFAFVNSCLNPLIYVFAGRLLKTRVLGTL
In short: (§1)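 CHO K1 cells stably expressing human or rat B1R were loaded with Fluo-4 and tested at 10 μM compound. Ca²⁺ signal was read in FLIPR as % activation versus agonist. After 10 min, agonist was added (hB1R: Lys-Des-Arg9-bradykinin 0.5 nM; rB1R: Des-Arg9-bradykinin 100 nM), and % inhibition was taken relative to maximum achievable inhibition.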

[2] = target: T2, human B1R receptor (hB1R) (Homo sapiens, UniProt P46663); assay: FLIPR Ca2+ assay on human bradykinin 1 receptor (CHO K1 hB1R cells); assay type: cell-based; conditions: test substance 10 μM; CHO K1 cells with human B1R gene; agonist Lys-Des-Arg9-bradykinin 0.5 nM; compared to maximum achievable inhibition
T2 construct: host or cells: CHO K1 cells
T2 sequence (P46663 1-353): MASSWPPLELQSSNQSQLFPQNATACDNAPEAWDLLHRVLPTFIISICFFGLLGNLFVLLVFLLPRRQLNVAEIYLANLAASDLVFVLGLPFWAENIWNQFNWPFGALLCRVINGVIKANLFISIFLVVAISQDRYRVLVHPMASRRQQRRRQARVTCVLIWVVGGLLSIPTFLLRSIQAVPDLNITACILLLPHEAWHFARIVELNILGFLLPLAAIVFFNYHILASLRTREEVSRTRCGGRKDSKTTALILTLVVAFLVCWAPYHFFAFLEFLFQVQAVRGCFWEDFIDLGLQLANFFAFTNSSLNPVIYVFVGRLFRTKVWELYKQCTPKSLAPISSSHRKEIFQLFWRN
In short: as §1

Compound: COc1cc(C)c(S(=O)(=O)N(C)CCOCC(=O)N2CCn3cnnc3C2)c(C)c1 [Example 3, N-(2-(2-(5,6-dihydro-[1,2,4]triazolo[4,3-a]pyrazin-7(8H)-yl)-2-oxoethoxy)ethyl)-4-methoxy-N,2,6-trimethylbenzenesulfonamide]
inhibition at 10 µM [1]: 93%
inhibition at 10 µM [2]: 43%

Compound: COc1c(C)cc(S(=O)(=O)N(C)CCOCC(=O)N2CCn3cccc3C2c2ccccc2)c(C)c1C (centres unmarked) [Example 32, 4-methoxy-N,2,3,5-tetramethyl-N-(2-(2-oxo-2-(1-phenyl-3,4-dihydropyrrolo[1,2-a]pyrazin-2(1H)-yl)ethoxy)ethyl)benzenesulfonamide]
inhibition at 10 µM [1]: 99%
inhibition at 10 µM [2]: 78%

Compound: COc1cc(C)c(S(=O)(=O)N(C)CCOCC(=O)N2CCn3c(CN4CCCC4)ccc3C2c2ccccc2)c(C)c1 (centres unmarked) [Example 15, 4-methoxy-N,2,6-trimethyl-N-(2-(2-oxo-2-(1-phenyl-6-(pyrrolidin-1-ylmethyl)-3,4-dihydropyrrolo[1,2-a]pyrazin-2(1H)-yl)ethoxy)ethyl)benzenesulfonamide]
inhibition at 10 µM [1]: 101%
inhibition at 10 µM [2]: 101%

Compound: Cc1cc(C)c(S(=O)(=O)N(C)CCOCC(=O)N2CCn3cccc3C2c2ccc(C(C)(C)C)cc2)c(C)c1 (centres unmarked) [Example 78, N-(2-(2-(1-(4-tert-butylphenyl)-3,4-dihydropyrrolo[1,2-a]pyrazin-2(1H)-yl)-2-oxoethoxy)ethyl)-N,2,4,6-tetramethylbenzenesulfonamide]
inhibition at 10 µM [1]: 77%
inhibition at 10 µM [2]: 32%

Compound: COc1cc(C)c(S(=O)(=O)N(CCOCC(=O)N2CCn3cccc3C2c2ccccc2)Cc2ccccc2)c(C)c1 (centres unmarked) [Example 48, N-benzyl-4-methoxy-2,6-dimethyl-N-(2-(2-oxo-2-(1-phenyl-3,4-dihydropyrrolo[1,2-a]pyrazin-2(1H)-yl)ethoxy)ethyl)benzenesulfonamide]
inhibition at 10 µM [1]: 98%
inhibition at 10 µM [2]: 54%

Now from value to molecule:

inhibition at 10 µM [1]: 54%
inhibition at 10 µM [2]: 52%
Compound: COc1cc(C)c(S(=O)(=O)N(CCOCC(=O)N2CCn3c(CN(C)C)ccc3C2CCc2ccccc2)Cc2ccccc2)c(C)c1C (centres unmarked) [Example 119, N-benzyl-N-(2-(2-(6-((dimethylamino)methyl)-1-phenethyl-3,4-dihydropyrrolo-[1,2-a]pyrazin-2(1H)-yl)-2-oxoethoxy)ethyl)-4-methoxy-2,3,6-trimethylbenzene-sulfonamide]

inhibition at 10 µM [1]: 100%
inhibition at 10 µM [2]: 100%
Compound: CCCCC1c2ccc(CN(C)C)n2CCN1C(=O)COCCN(C)S(=O)(=O)c1cc(C)c(OC)c(C)c1C (centres unmarked) [Example 111, N-(2-(2-(1-butyl-6-((dimethylamino)methyl)-3,4-dihydropyrrolo[1,2-a]pyrazin-2(1H)-yl)-2-oxoethoxy)ethyl)-4-methoxy-N,2,3,5-tetramethylbenzene-sulfonamide]

inhibition at 10 µM [1]: 98%
inhibition at 10 µM [2]: 57%
Compound: CCC1c2cccn2CCN1C(=O)C[C@@H](NS(=O)(=O)c1ccc2ccccc2c1)c1ccccc1 (stereo partly drawn) [Example 162, N-((1R)-3-(1-Ethyl-3,4-dihydropyrrolo[1,2-a]pyrazin-2(1H)-yl)-3-oxo-1-phenylpropyl)naphthalene-2-sulfonamide]

inhibition at 10 µM [1]: 99%
inhibition at 10 µM [2]: 101%
Compound: COc1cc(C)c(S(=O)(=O)N(C)CCOCC(=O)N2CCn3cccc3C2c2ccccc2)c(C)c1C (centres unmarked) [Example 84, 4-methoxy-N,2,3,6-tetramethyl-N-(2-(2-oxo-2-(1-phenyl-3,4-dihydropyrrolo[1,2-a]pyrazin-2(1H)-yl)ethoxy)ethyl)benzenesulfonamide]

inhibition at 10 µM [1]: 102%
inhibition at 10 µM [2]: 104%
Compound: CCC1c2ccc(C)n2CCN1C(=O)COCCN(C)S(=O)(=O)c1c(C)cc(OC)cc1C (centres unmarked) [Example 138, N-(2-(2-(1-ethyl-6-methyl-3,4-dihydropyrrolo[1,2-a]pyrazin-2(1H)-yl)-2-oxoethoxy)ethyl)-4-methoxy-N,2,6-trimethylbenzenesulfonamide]
